What was measured:
Embryogenic calli = assay: X-gluc staining of calli immediately after 53 hours co-culture; type: cell-based, Jatropha curcas; settings: AS 200 μM, pCambia1305.1 bar
Source text: The calli were immediately stained with X-gluc and photographed.
The calli were immediately stained with X-gluc.

[1] = tested on: Soybean embryogenic suspension culture (derived Peking 18); settings: 1 μM DPI in co-culture medium; pre-induced AGL1(pCambia1305.1); 2.5 day at 24° C.; 10 mg/l hygromycin selection; control about 40%
Protocol: Soybean embryogenic suspension culture (derived Peking 18) was co-cultured for 2.5 day at 24° C. with pre-induced AGL1(pCambia1305.1) on nylon membrane, which was placed on top of solid medium (1M with 20 mg/l 2,4-D and B5 vitamins) that was supplemented with 1 μM DPI or 1 mM Na-thiosulfate, 8.8 mM L-cysteine and 1 mM DTT. After selection with 10 mg/l hygromycin, the calli clumps were stained with X-gluc.

[2] = tested on: Jatropha curcas somatic embryos / somatic embryogenic calli; settings: TE7, AGL1 pST2eGFP
Protocol: Embryogenic cell lines, for example, JS4 cell line, which was derived from a zygotic embryo of an Indonesian Jatropha curcas collection, were subcultured every week by transferring about 3 g of the cell mass to 20 ml J20P medium. 3-5 days after subculture, the embryogenic calli cell mass was collected.
Co-culture plates were made by pouring about 30 ml JIM2H solid medium to each 90 mm Petri dish. Alternatively, 3-4 sheets of cellulose filter paper can be soaked with JIM2H liquid medium before placing into a 90 mm Petri dish. One sheet of 82 mm Hybond N membrane was over-laid to the medium-soaked cellulose filter paper or solid JIM2H medium. About 0.75 g embryogenic calli was mixed with 200 ul Agrobacterium cells on the membrane. After one hour incubation at room temperature, excess liquid medium containing the Agrobacterium cells was removed. The plates were capped, sealed with 3M tape and incubated at 24° C. with dim light for 2-3 days.
Fresh colonies of AGL2 or AGL3 harboring pCambia1305.1 were inoculated into 30 ml LB medium that had been supplemented with 25 mg/l rifampicin and 50 mg/l kanamycin. Cells were cultured at 28° C., 200-230 RPM until OD600 reached 0.8-2.0. […]
In about 3 weeks, the embryos were transferred to G35-2 medium with 10 mg/l hygromycin. […] Rooted plantlets were ready for planting in soil in 2-3 weeks. […]

[3] = tested on: Somatic embryogenic calli from 4 different cell lines; settings: DPI at about 10 μM; AGL2(pCambia1305.1); LMP Bd2 embedding; two months selection; average of four cell lines
Protocol: The co-culture medium JIM2 was supplemented with either 1 μM diphenyl iodonium (DPI), 5 μM DPI or a mixture of antioxidants with a final concentration of 1 mM Na-thiosulfate, 8.8 mM L-cysteine and 1 mM dithiothreitol (DTT). Hygromycin resistant somatic embryos were scored after two months selection. The number of somatic embryos derived from co-culture with DPI-free JIM2 (CK) was set at 100 in each cell line and the relative number of somatic embryos in other co-culture conditions was calculated by dividing the actual number by that of CK.
Somatic embryogenic calli from 4 different cell lines were co-cultured with AGL2(pCambia1305.1) and selection was done by the LMP Bd2 embedding method. The co-culture medium JIM2 was supplemented with either 1 μM DPI, 5 μM DPI or a mixture of antioxidants with a final concentration of 1 mM Na-thiosulfate, 8.8 mM L-cysteine and 1 mM DTT. Hygromycin resistant somatic embryos were scored after two months selection. In transformation using each cell line, the number of somatic embryos derived from co-culture with DPI-free JIM2 (CK) was set at 100 and relative number of somatic embryos in other co-culture conditions was calculated by dividing the actual number by that of CK.

COc1cc(C(C)=O)cc(OC)c1O [AS, acetosyringone]
Effect of AS on transformation efficiency in AGL2 (Embryogenic calli): further boosted transformation efficiency

c1ccc2c(c1)[I+]c1ccccc1-2 [DPI, diphenylene iodonium]
calli clumps showing GUS staining [1]: more than 80% | Effect of DPI on explants ([2]; liquid medium SE): DPI caused no damage on | Improvement of transformation efficiency (relative number of hygromycin resistant somatic embryos vs DPI-free JIM2) [3]: more than 2 folds

NC[C@H]1O[C@H](O[C@H]2[C@H](O)[C@@H](O[C@H]3O[C@H](CO)[C@@H](O)[C@H](N)[C@H]3O)[C@H](N)C[C@@H]2N)[C@H](O)[C@@H](O)[C@@H]1O [Kan, kanamycin]
Kan selection concentration found OK ([2]; Kan 0, 25, 50 and 80 mg/l tested, SE on solid medium): 50-80 mg/l OK, heavy
